# Assay results published in ChEMBL document CHEMBL1145291, “Metal complexes with superoxide dismutase-like activity as candidates for anti-prion drug” (Bioorg Med Chem Lett, 2006).
# Key:
# ScN2a [1] = assay: Inhibition of PrP-res formation in mouse ScN2a cells relative to control; type: functional, cell-based
# ScN2a [2] = assay: Cytotoxicity against mouse ScN2a cells up to 1 uM; type: cell-based
# [3] = Cytotoxicity against prion Fukuoka1 strain infected mouse N2a#58 cells up to 1uM; type: cell-based
# ScN2a [4] = assay: Cytotoxicity against mouse ScN2a cells at 100 uM; type: cell-based
# [5] = Cytotoxicity against prion Fukuoka1 strain infected mouse N2a#58 cells at 100 uM; type: cell-based
# [6] = Inhibition of PrP-res formation in prion Fukuoka1 strain infected mouse N2a#58 cells relative to control; type: functional
SMILES,IC50 (ScN2a [1]),Activity (ScN2a [2]),Activity [3],Activity (ScN2a [4]),Activity [5],IC50 [6]
Cc1ccc2ccc3ccc(C)nc3c2n1 [NEOCUPROINE],80 nM,Not Active,Not Active,,,
c1cnc2c(c1)ccc1cccnc12 [PHENANTHROLINE],,,,Active,Active,
Oc1cccc2cccnc12 [OXYQUINOLINE],,,,Active,Active,
c1ccc2cc(-c3ccc4ccccc4n3)ncc2c1,5 nM,Not Active,Not Active,,,250 nM
c1ccc(-c2cccc(-c3ccccn3)n2)nc1 [TERPYRIDINE],,,,Active,Active,
O=C([O-])c1cc(-c2cc(C(=O)[O-])c3ccccc3n2)nc2ccccc12.[Na+].[Na+],,Not Active,Not Active,,,
O=S(=O)(O)c1ccc(-c2c3nc(c(-c4ccc(S(=O)(=O)O)cc4)c4ccc([nH]4)c(-c4ccc(S(=O)(=O)O)cc4)c4ccc([nH]4)c(-c4ccc(S(=O)(=O)O)cc4)c4nc2C=C4)C=C3)cc1 [TETRAPHENYLPORPHINE TETRASULFONIC ACID],200 nM,,,,,160 nM
C[n+]1ccc(-c2c3nc(c(-c4cc[n+](C)cc4)c4ccc([nH]4)c(-c4cc[n+](C)cc4)c4nc(c(-c5cc[n+](C)cc5)c5ccc2[nH]5)C=C4)C=C3)cc1,130 nM,,,,,160 nM
Cc1cc(-c2ccccc2)c2ccc3c(-c4ccccc4)cc(C)nc3c2n1 [BATHOCUPROINE],80 nM,Not Active,Not Active,,,200 nM
O=C(O)c1ccc(-c2c3nc(c(-c4ccc(C(=O)O)cc4)c4ccc([nH]4)c(-c4ccc(C(=O)O)cc4)c4ccc([nH]4)c(-c4ccc(C(=O)O)cc4)c4nc2C=C4)C=C3)cc1,250 nM,,,,,160 nM
C1=Cc2nc1c(-c1ccccc1)c1nc(c(-c3ccccc3)c3ccc([nH]3)c(-c3ccccc3)c3ccc([nH]3)c2-c2ccccc2)C=C1 [TETRAPHENYLPORPHYRIN],10 nM,,,,,320 nM
